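96-well plates; 48 h exposure; 5 concentrations. Endpoints by linear interpolation between flanking doses. Not reached: highest tested concentration assigned. GI50 is the concentration that inhibits growth by half. TGI denotes the concentration required for complete inhibition of growth.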

Test systems include T-47D breast; NCI/ADR-RES ovarian; SK-MEL-2 melanoma; K-562 leukemia; MDA-MB-435.
What all share (assay): inhibition of tumour cell growth, NCI panel, 48 h

In the case of `OC(c1cccc(C(F)(F)F)c1)c1cnccc1NC1CCCCCC1` (stereo unspecified), the GI50 was 1.79 µM in the assay on T-47D breast; 1.85 µM with NCI/ADR-RES ovarian; 1.71 µM in the assay on SK-MEL-2 melanoma; 1.57 µM in the assay with K-562 leukemia; 1.66 µM with MDA-MB-435. The TGI came to 4.82 µM with T-47D breast; 4.18 µM in the assay on NCI/ADR-RES ovarian; 3.34 µM with SK-MEL-2 melanoma; 4.51 µM with K-562 leukemia; 3.13 µM with MDA-MB-435.

Turning to `Fc1ccc(-c2nn(-c3ccccc3)cc2-c2nc3ccccc3o2)cc1`, the GI50 in the assay with T-47D breast is 37.3 µM; in the assay with NCI/ADR-RES ovarian, 3.57 µM; in the assay with SK-MEL-2 melanoma, 9 µM; in the assay with K-562 leukemia, 1.25 µM; in the assay with MDA-MB-435, 1.79 µM. In addition, the TGI in the assay on T-47D breast is > 100 µM; with NCI/ADR-RES ovarian it was > 100 µM; in the assay with SK-MEL-2 melanoma it was 28.3 µM; in the assay on K-562 leukemia, > 100 µM; with MDA-MB-435, 3.41 µM.

As to `COc1nc2c(cc1S(=O)(=O)c1ccccc1)CCc1c-2cnn1-c1ccccc1Cl`, the GI50 with NCI/ADR-RES ovarian is 8.24 µM; with SK-MEL-2 melanoma, 71.7 µM; in the assay with K-562 leukemia, 5.23 µM; in the assay on MDA-MB-435, 8.94 µM. For the same compound, the TGI in the assay on NCI/ADR-RES ovarian, with SK-MEL-2 melanoma, in the assay on K-562 leukemia and in the assay with MDA-MB-435 was > 100 µM throughout.

For `CCOc1ccc2nc(NC(=O)/C(CC(=O)CC(C3=C(O)c4ccccc4CC3=O)c3ccccc3)=N\O)sc2c1` (stereo unspecified), the TGI with T-47D breast, in the assay on NCI/ADR-RES ovarian, in the assay with SK-MEL-2 melanoma, in the assay with K-562 leukemia and in the assay on MDA-MB-435 was > 100 µM each time.

In the case of `CC1=C(CCCOC(=O)NCCCl)C2=C(C)C3(CC3)[C@@](C)(O)C(=O)C2=C1`, the GI50 was 3.36 µM in the assay with T-47D breast; 2.95 µM in the assay with NCI/ADR-RES ovarian; 2.31 µM in the assay with SK-MEL-2 melanoma; 23 µM in the assay with K-562 leukemia; 5.07 µM with MDA-MB-435. Besides, the TGI in the assay with T-47D breast is > 100 µM; in the assay on NCI/ADR-RES ovarian, > 100 µM; in the assay with SK-MEL-2 melanoma it was 4.96 µM; in the assay with K-562 leukemia, > 100 µM; in the assay with MDA-MB-435, 99.4 µM.

Regarding `COc1ccc(CN2CCCC(C(=O)c3ccc(C(F)(F)F)cc3)C2)c(O)c1` (stereo unspecified), the GI50 was 22.1 µM in the assay with T-47D breast; 26.7 µM with NCI/ADR-RES ovarian; 27.5 µM with SK-MEL-2 melanoma; 19.3 µM in the assay with K-562 leukemia; 23.4 µM in the assay with MDA-MB-435. Moreover, the TGI was 80.1 µM in the assay on T-47D breast; > 100 µM with NCI/ADR-RES ovarian; 65.8 µM with SK-MEL-2 melanoma; 93.3 µM in the assay on K-562 leukemia; 83.3 µM with MDA-MB-435.

With `CCOC(=O)c1cc(-c2ccc([N+](=O)[O-])cc2)n(-c2ccc(C(=O)O)c(O)c2)c1C`, the GI50 is 2.81 µM with T-47D breast; 3.8 µM with NCI/ADR-RES ovarian; 11.5 µM in the assay with SK-MEL-2 melanoma; 3.82 µM in the assay on K-562 leukemia; 3.62 µM in the assay with MDA-MB-435. The TGI in the assay on T-47D breast is 11.4 µM; with NCI/ADR-RES ovarian it was 38.6 µM; with SK-MEL-2 melanoma it was 24.7 µM; in the assay with K-562 leukemia, > 100 µM; in the assay on MDA-MB-435, 14.6 µM.

For `CN=C1NC(=O)/C(=C/c2ccc3ncccc3c2)S1`, the GI50 was 5.24 µM in the assay with T-47D breast; 13.9 µM in the assay on NCI/ADR-RES ovarian; 5.42 µM with SK-MEL-2 melanoma; 13.7 µM in the assay with K-562 leukemia; 4.06 µM with MDA-MB-435. For the same compound, the TGI is 24.4 µM in the assay with T-47D breast; > 25 µM in the assay with NCI/ADR-RES ovarian; 14.4 µM in the assay on SK-MEL-2 melanoma; > 25 µM in the assay with K-562 leukemia; > 25 µM in the assay with MDA-MB-435.

For `COC(=O)[C@@H](C)C[C@H](Cc1ccccc1)NC(=O)c1nc([C@@H](C[C@H](C(C)C)N(C)C(=O)[C@@H](NC(=O)[C@H]2CCCN2C)C(C)C)OC(C)=O)sc1C`, the GI50 in the assay on NCI/ADR-RES ovarian is 0.235 µM; with SK-MEL-2 melanoma, < 0.0025 µM; in the assay with K-562 leukemia it was < 0.0025 µM; with MDA-MB-435, < 0.0025 µM. In addition, the TGI in the assay with NCI/ADR-RES ovarian was > 25 µM; in the assay with SK-MEL-2 melanoma, > 25 µM; with K-562 leukemia, > 25 µM; in the assay with MDA-MB-435 it was < 0.0025 µM.

For the compound `N#Cc1c(O)c2c(c(O)c1C#N)C(=O)c1ccccc1C2=O`, the GI50 with T-47D breast was 2.71 µM; with NCI/ADR-RES ovarian it was 2.12 µM; in the assay on SK-MEL-2 melanoma, 2.66 µM; with K-562 leukemia, 1.9 µM. Further, the TGI in the assay on T-47D breast turned out to be 9.2 µM; with NCI/ADR-RES ovarian, 7.25 µM; in the assay with SK-MEL-2 melanoma, 7.73 µM; in the assay on K-562 leukemia, 6.63 µM.

Take `COc1ccc(-n2cc(-c3ccc(OC)c(OC)c3)[nH]c2=S)cc1Cl`: the GI50 in the assay on T-47D breast, in the assay on NCI/ADR-RES ovarian, with SK-MEL-2 melanoma, with K-562 leukemia and with MDA-MB-435 was > 100 µM throughout. Besides, the TGI in the assay on T-47D breast, with NCI/ADR-RES ovarian, in the assay with SK-MEL-2 melanoma, in the assay on K-562 leukemia and in the assay on MDA-MB-435 was > 100 µM throughout.

Take `ClCc1ccccc1CSc1ncnc2nc[nH]c12`: the GI50 in the assay with T-47D breast, in the assay with NCI/ADR-RES ovarian, with K-562 leukemia and with MDA-MB-435 was > 60 µM each time. Further, the TGI in the assay on T-47D breast, with NCI/ADR-RES ovarian, in the assay with K-562 leukemia and in the assay on MDA-MB-435 was > 60 µM in each case.

Regarding `CC(=O)c1ccc(N(/C=C/C(=O)C(F)(F)F)CC(=O)c2ccc(Cl)c(Cl)c2)cc1`, the GI50 in the assay with T-47D breast was 26.4 µM; in the assay with NCI/ADR-RES ovarian, 18.2 µM; with SK-MEL-2 melanoma, 15.3 µM; with MDA-MB-435, 3.43 µM. Also, the TGI in the assay with T-47D breast is 75.4 µM; in the assay with NCI/ADR-RES ovarian it was 38.4 µM; with SK-MEL-2 melanoma, 30.4 µM; with MDA-MB-435, 11.7 µM.

Turning to `O=C(Cc1ccc(/C=C/C(=O)c2ncc[nH]2)cc1)Nc1ccc(Cl)cc1`, the GI50 in the assay with T-47D breast was 3.24 µM; with NCI/ADR-RES ovarian, 5.02 µM; in the assay on SK-MEL-2 melanoma, 5.53 µM; with MDA-MB-435, 4.14 µM. In addition, the TGI in the assay with T-47D breast was 16.2 µM; in the assay on NCI/ADR-RES ovarian, > 25 µM; with SK-MEL-2 melanoma, 14.6 µM; in the assay on MDA-MB-435 it was > 25 µM.

In the case of `S=C1NCCN1C1=Nc2ccccc2CO1`, the GI50 in the assay on T-47D breast was 73.5 µM; in the assay on NCI/ADR-RES ovarian, > 100 µM; in the assay with K-562 leukemia, > 100 µM; with MDA-MB-435, > 100 µM. Besides, the TGI in the assay with T-47D breast, in the assay with NCI/ADR-RES ovarian, in the assay with K-562 leukemia and with MDA-MB-435 was > 100 µM throughout.
